Biological target: PI3Kalpha (Homo sapiens (Human), UniProt P42336)
Experiment: HTRF PI3K biochemical assay, alpha isoform (selectivity versus delta)
Settings: ratio PI3K-alpha IC50 value/PI3K-delta IC50 value
Protocol: HTRF PI3K Biochemical Assay to Measure Intrinsic Potency of Compound Inhibitors
This loss of signal is nonlinear with respect to both increasing product and time. This non-linear detection will impact accuracy of IC50 calculations; therefore, there is a need for a correction factor to obtain more accurate IC50 values. This correction is derived from a PIP3 standard curve run in a separate assay plate. All data were calculated using the ratio of acceptor (APC) to donor (Europium) fluorescence in each well of the assay plate. […] An IC50 was then calculated fitting the % inhibition data to the equation: % inhibition=min+(Max−min)/1+([inhibitor]/IC50)^n) where min is the % inhibition with inhibitor, max is the signal in DMSO control, and n is the Hill slope.
The biological data was collected using the methodology described above.
The determination of relative selectivity for a given compound is defined as the relative ratio of the (PI3K-alphaIC50 value/PI3K-delta IC50 value).

Sequence of PI3Kalpha (P42336 whole entry, canonical isoform): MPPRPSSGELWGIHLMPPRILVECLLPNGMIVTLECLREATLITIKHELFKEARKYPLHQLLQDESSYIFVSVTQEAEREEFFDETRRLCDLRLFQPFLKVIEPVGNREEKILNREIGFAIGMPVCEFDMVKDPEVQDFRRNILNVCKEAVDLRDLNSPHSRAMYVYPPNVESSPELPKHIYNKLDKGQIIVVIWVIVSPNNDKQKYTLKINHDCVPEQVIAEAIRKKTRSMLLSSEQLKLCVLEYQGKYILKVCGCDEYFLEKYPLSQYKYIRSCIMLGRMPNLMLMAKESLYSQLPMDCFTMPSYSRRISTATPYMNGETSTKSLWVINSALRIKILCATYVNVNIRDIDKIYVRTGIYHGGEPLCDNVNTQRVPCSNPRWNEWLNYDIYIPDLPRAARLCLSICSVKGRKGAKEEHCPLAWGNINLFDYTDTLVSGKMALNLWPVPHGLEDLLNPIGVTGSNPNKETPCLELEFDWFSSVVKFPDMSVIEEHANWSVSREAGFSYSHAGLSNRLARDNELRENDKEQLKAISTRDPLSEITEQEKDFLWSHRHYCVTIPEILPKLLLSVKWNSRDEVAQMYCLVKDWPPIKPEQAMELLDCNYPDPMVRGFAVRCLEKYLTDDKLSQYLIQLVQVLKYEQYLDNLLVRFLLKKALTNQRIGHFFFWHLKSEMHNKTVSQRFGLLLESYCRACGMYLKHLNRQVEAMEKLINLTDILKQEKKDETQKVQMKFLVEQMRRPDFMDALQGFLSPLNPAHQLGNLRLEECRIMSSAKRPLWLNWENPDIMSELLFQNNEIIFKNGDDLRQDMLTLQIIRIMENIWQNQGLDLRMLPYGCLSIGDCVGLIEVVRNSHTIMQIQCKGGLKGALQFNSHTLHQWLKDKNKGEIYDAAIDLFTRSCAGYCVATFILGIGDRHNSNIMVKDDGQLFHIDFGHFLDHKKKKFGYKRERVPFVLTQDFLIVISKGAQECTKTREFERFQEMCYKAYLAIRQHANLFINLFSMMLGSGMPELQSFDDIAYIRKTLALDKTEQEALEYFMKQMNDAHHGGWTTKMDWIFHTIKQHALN
Sequence of PI3Kalpha (P27986 whole entry partner, canonical isoform): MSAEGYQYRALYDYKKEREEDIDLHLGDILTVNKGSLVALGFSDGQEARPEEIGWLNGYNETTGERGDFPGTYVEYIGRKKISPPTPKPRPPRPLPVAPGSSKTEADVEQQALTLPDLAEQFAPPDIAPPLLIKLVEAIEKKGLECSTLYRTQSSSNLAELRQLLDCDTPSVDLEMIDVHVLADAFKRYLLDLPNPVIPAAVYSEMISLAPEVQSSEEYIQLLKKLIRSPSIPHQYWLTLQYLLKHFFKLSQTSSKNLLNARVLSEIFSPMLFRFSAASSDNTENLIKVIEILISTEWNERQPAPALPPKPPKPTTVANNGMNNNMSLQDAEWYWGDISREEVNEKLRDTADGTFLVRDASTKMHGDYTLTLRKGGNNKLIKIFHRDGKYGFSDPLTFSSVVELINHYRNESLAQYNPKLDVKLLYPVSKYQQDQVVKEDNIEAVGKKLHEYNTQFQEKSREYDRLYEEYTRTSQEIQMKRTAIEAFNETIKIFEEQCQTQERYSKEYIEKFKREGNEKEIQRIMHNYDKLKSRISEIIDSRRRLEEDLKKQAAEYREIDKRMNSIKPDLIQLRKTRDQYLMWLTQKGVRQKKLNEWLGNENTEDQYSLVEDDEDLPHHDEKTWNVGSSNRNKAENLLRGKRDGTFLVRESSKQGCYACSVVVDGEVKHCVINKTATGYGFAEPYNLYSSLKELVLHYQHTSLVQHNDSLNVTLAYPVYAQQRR

Row | SMILES | Relative Selectivity versus PI3Kalpha
1 | Cc1ncc(-c2nc3c(-c4ccc5c(c4)C(C)(OCC4CC4)C(=O)N5)ncnc3n2C)cn1 (racemic) [Compound 2-75, 3-(cyclopropylmethoxy)-3-methyl-5-(9-methyl-8-(2-methylpyrimidin-5-yl)-9H-purin-6-yl)indolin-2-one] | >10
2 | CCn1c(-c2cnc(C)nc2)nc2c(-c3ccc4c(c3)CNC4=O)ncnc21 [Compound 4-15, 5-(9-ethyl-8-(2-methylpyrimidin-5-yl)-9H-purin-6-yl)isoindolin-1-one] | 7
3 | CCn1c(-c2cnc(C)nc2)nc2c(-c3ccc4c(c3)C(C)(OC(C)C)C(=O)N4)ncnc21 (racemic) [Compound 2-73, 5-(9-ethyl-8-(2-methylpyrimidin-5-yl)-9H-purin-6-yl)-3-isopropoxy-3-methylindolin-2-one] | >10
4 | CCn1c(-c2cnc(C)nc2)nc2c(-c3ccc4c(c3)C(C)(c3ccccc3)OC(=O)N4)ncnc21 (stereo not shown) [Compound 4-16, 6-(9-ethyl-8-(2-methylpyrimidin-5-yl)-9H-purin-6-yl)-4-methyl-4-phenyl-1,4-dihydro-2H-benzo[d][1,3]oxazin-2-one] | >10
5 | CCn1c(-c2cnc(C)nc2)nc2c(-c3ccc4c(c3)C(C#N)(N3CC(C)(OC)C3)C(=O)N4)ncnc21 (stereo not shown) [Compound 2-77, 5-(9-ethyl-8-(2-methylpyrimidin-5-yl)-9H-purin-6-yl)-3-(3-methoxy-3-methylazetidin-1-yl)-2-oxoindoline-3-carbonitrile] | >10
6 | Cc1ncc(-c2nc3c(-c4ccc5c(c4)C4(CCN(C(=O)C6CC6)CC4)C(=O)N5)ncnc3n2C)cn1 [Compound 3-25, 1′-(cyclopropanecarbonyl)-5-(9-methyl-8-(2-methylpyrimidin-5-yl)-9H-purin-6-yl)spiro[indoline-3,4′-piperidin]-2-one] | >10
7 | CCn1c(-c2cnc(C)nc2)nc2c(-c3ccc4c(c3)C(C)(Cc3ccccc3)CN4)ncnc21 (stereo not shown) [Compound 1-18, 6-(3-Benzyl-3-methylindolin-5-yl)-9-ethyl-8-(2-methylpyrimidin-5-yl)-9H-purine] | >10
8 | CCn1c(-c2cnc(C)nc2)nc2c(-c3ccc4c(c3)CNS4(=O)=O)ncnc21 [Compound 4-13, 5-(9-ethyl-8-(2-methylpyrimidin-5-yl)-9H-purin-6-yl)-2,3-dihydrobenzo[d]isothiazole 1,1-dioxide] | 9

The remaining lines, values ahead:

Row | Relative Selectivity versus PI3Kalpha | SMILES
9 | >10 | CCn1c(-c2cnc(C)nc2)nc2c(-c3ccc4oc(=O)n(CC5CCOCC5)c4c3)ncnc21 [Compound 5-4, 5-[9-ethyl-8-(2-methylpyrimidin-5-yl)-9H-purin-6-yl]-3-(tetrahydro-2H-pyran-4-ylmethyl)-1,3-benzoxazol-2(3H)-one]
10 | >10 | CCn1c(-c2cnc(C)nc2)nc2c(-c3ccc4c(c3)C(C)(Cc3cncnc3)C(=O)N4)ncnc21 (racemic) [Compound 1-33, 5-(9-ethyl-8-(2-methylpyrimidin-5-yl)-9H-purin-6-yl)-3-methyl-3-(pyrimidin-5-ylmethyl)indolin-2-one]
11 | >10 | CCn1c(-c2cnc(C)nc2)nc2c(-c3ccc4c(c3)C(C)(Cc3ccccc3)CN4C(C)=O)ncnc21 (stereo not shown) [Compound 1-19, 1-(3-Benzyl-5-(9-ethyl-8-(2-methylpyrimidin-5-yl)-9H-purin-6-yl)-3-methylindolin-1-yl)ethan-1-one]
12 | >10 | CCn1c(-c2cnc(C)nc2)nc2c(-c3ccc4c(c3)C(C)(Cc3ccccc3)CN4C)ncnc21 (stereo not shown) [Compound 1-22, 6-(3-Benzyl-1,3-dimethylindolin-5-yl)-9-ethyl-8-(2-methylpyrimidin-5-yl)-9H-purine]
13 | >10 | CCn1c(-c2cnc(C)nc2)nc2c(-c3ccc4c(c3)C(C#N)(CC(C)C)C(=O)N4)ncnc21 (stereo not shown) [Compound 1-11, 5-(9-Ethyl-8-(2-methylpyrimidin-5-yl)-9H-purin-6-yl)-3-isobutyl-2-oxoindoline-3-carbonitrile]

— patent US10544147B2, “Purine inhibitors of human phosphatidylinositol 3-kinase delta” (MERCK SHARP & DOHME CORP., priority 2016, dated 2020)
